Assay results: ChEMBL document CHEMBL1201862, “PubChem BioAssay data set” (2004)
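Values below derive from 48-hour exposures of cells grown in 96-well plates, with endpoints linearly interpolated between the two concentrations bracketing the appropriate inhibition level. At the GI50, growth is halved.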 Active and inactive are the calls of the source. Rule as the data show it: active = GI50 up to about 1.1 µM and inactive = higher.

Experiments:
Test in all cases: growth of human tumour cells (NCI), 48 h
A498 = system: A498
UACC-257 = system: UACC-257
SNB-19 = system: SNB-19
HT-29 = system: HT-29
Hs-578T = system: Hs-578T
SK-MEL-28 = system: SK-MEL-28
NCI-H226 = system: NCI-H226
K562 = system: K562
SF-539 = system: SF-539
M14 = system: M14
OVCAR-5 = system: OVCAR-5
MDA-N = system: MDA-N
UO-31 = system: UO-31
CCRF-CEM = system: CCRF-CEM
SK-MEL-2 = system: SK-MEL-2
OVCAR-4 = system: OVCAR-4
LOX IMVI = system: LOX IMVI
MOLT-4 = system: MOLT-4
SR = system: SR
HCC 2998 = system: HCC 2998

| SMILES | GI50 (A498) | GI50 (UACC-257) | GI50 (SNB-19) | GI50 (HT-29) | GI50 (Hs-578T) | GI50 (SK-MEL-28) | GI50 (NCI-H226) | GI50 (K562) | GI50 (SF-539) | GI50 (M14) | GI50 (OVCAR-5) | GI50 (MDA-N) | GI50 (UO-31) | GI50 (CCRF-CEM) | GI50 (SK-MEL-2) | GI50 (OVCAR-4) | GI50 (LOX IMVI) | GI50 (MOLT-4) | GI50 (SR) | GI50 (HCC 2998) |
| --- | --- | --- | --- | --- | --- | --- | --- | --- | --- | --- | --- | --- | --- | --- | --- | --- | --- | --- | --- | --- |
| O=C(O)/C=C\C(=O)Nc1ccccn1 | > 100 µM (inactive) | > 100 µM (inactive) | > 100 µM (inactive) | > 100 µM (inactive) | > 100 µM (inactive) | > 100 µM (inactive) | > 100 µM (inactive) | > 100 µM (inactive) | > 100 µM (inactive) | > 100 µM (inactive) | > 100 µM (inactive) | > 100 µM (inactive) | > 100 µM (inactive) | > 100 µM (inactive) | > 100 µM (inactive) | > 100 µM (inactive) | > 100 µM (inactive) | > 100 µM (inactive) | > 100 µM (inactive) | – |
| CC(=O)Nc1ccc2c(C)c3c4ccccc4n(C)c3nc2n1 | 18.1 µM (inactive) | 26.9 µM (inactive) | 39.1 µM (inactive) | 14.8 µM (inactive) | 16.3 µM (inactive) | – | 29.6 µM (inactive) | – | 29.3 µM (inactive) | 20.7 µM (inactive) | 18.6 µM (inactive) | 17.1 µM (inactive) | 11.4 µM (inactive) | 18.7 µM (inactive) | 20.6 µM (inactive) | – | 12.6 µM (inactive) | 5.83 µM (inactive) | 10.6 µM (inactive) | 16.4 µM (inactive) |
| Cc1cc(Cl)cc2c1NC(=O)/C2=N\Nc1ccccc1[N+](=O)[O-] | > 100 µM (inactive) | > 100 µM (inactive) | > 100 µM (inactive) | – | 35.3 µM (inactive) | > 100 µM (inactive) | – | > 100 µM (inactive) | > 100 µM (inactive) | > 100 µM (inactive) | > 100 µM (inactive) | > 100 µM (inactive) | > 100 µM (inactive) | 21.1 µM (inactive) | > 100 µM (inactive) | > 100 µM (inactive) | 84.7 µM (inactive) | 74.3 µM (inactive) | 16.7 µM (inactive) | > 100 µM (inactive) |
| O=c1cn[nH]c(=S)n1/N=C/c1c[nH]c2ccccc12 | > 100 µM (inactive) | 63 µM (inactive) | > 100 µM (inactive) | > 100 µM (inactive) | > 100 µM (inactive) | > 100 µM (inactive) | – | 48 µM (inactive) | > 100 µM (inactive) | > 100 µM (inactive) | > 100 µM (inactive) | 87.1 µM (inactive) | > 100 µM (inactive) | 11.3 µM (inactive) | > 100 µM (inactive) | 88.1 µM (inactive) | 30 µM (inactive) | 37.6 µM (inactive) | 45.3 µM (inactive) | > 100 µM (inactive) |
| Cc1ccc(C2(N3CCOCC3)OC(C)(C)c3cccc4cccc2c34)cc1 (centres undefined) | 17.7 µM (inactive) | 18 µM (inactive) | 17.6 µM (inactive) | 15.5 µM (inactive) | 20.9 µM (inactive) | – | 17.1 µM (inactive) | 30.2 µM (inactive) | 17.9 µM (inactive) | 16.8 µM (inactive) | 15.8 µM (inactive) | 17.9 µM (inactive) | 16.9 µM (inactive) | 22.6 µM (inactive) | 15.6 µM (inactive) | 15.9 µM (inactive) | 16.5 µM (inactive) | 41.5 µM (inactive) | 35.1 µM (inactive) | – |
| O=C1CC(c2ccco2)C2(C(=O)NC(=O)NC2=O)C(c2ccco2)C1 (centres undefined) | > 75 µM (inactive) | > 75 µM (inactive) | > 75 µM (inactive) | > 75 µM (inactive) | > 75 µM (inactive) | > 75 µM (inactive) | – | > 75 µM (inactive) | > 75 µM (inactive) | > 75 µM (inactive) | > 75 µM (inactive) | > 75 µM (inactive) | > 75 µM (inactive) | > 75 µM (inactive) | > 75 µM (inactive) | > 75 µM (inactive) | > 75 µM (inactive) | > 75 µM (inactive) | > 75 µM (inactive) | > 75 µM (inactive) |
| COc1cc(Cn2c3c(c4cc(O)ccc42)Cc2ccccc2C3=O)cc(OC)c1 | > 100 µM (inactive) | > 100 µM (inactive) | > 100 µM (inactive) | 37.1 µM (inactive) | > 100 µM (inactive) | 31.8 µM (inactive) | > 100 µM (inactive) | 44.7 µM (inactive) | 37.3 µM (inactive) | 68.1 µM (inactive) | 19.1 µM (inactive) | 12 µM (inactive) | > 100 µM (inactive) | 22.6 µM (inactive) | > 100 µM (inactive) | 19.9 µM (inactive) | 76.4 µM (inactive) | 28.9 µM (inactive) | 6.46 µM (inactive) | – |
| COC(=O)[C@]12CCC(=O)N1[C@H](C(=O)O)Cc1c2[nH]c2ccccc12 | > 100 µM (inactive) | > 100 µM (inactive) | > 100 µM (inactive) | > 100 µM (inactive) | > 100 µM (inactive) | > 100 µM (inactive) | – | > 100 µM (inactive) | > 100 µM (inactive) | > 100 µM (inactive) | > 100 µM (inactive) | > 100 µM (inactive) | > 100 µM (inactive) | > 100 µM (inactive) | > 100 µM (inactive) | > 100 µM (inactive) | > 100 µM (inactive) | > 100 µM (inactive) | > 100 µM (inactive) | > 100 µM (inactive) |
| CCOC(=O)C(O)(NC(=O)Nc1ccc(F)cc1)C(F)(F)F (centres undefined) | > 100 µM (inactive) | > 100 µM (inactive) | > 100 µM (inactive) | > 100 µM (inactive) | > 100 µM (inactive) | > 100 µM (inactive) | – | > 100 µM (inactive) | > 100 µM (inactive) | > 100 µM (inactive) | > 100 µM (inactive) | > 100 µM (inactive) | > 100 µM (inactive) | > 100 µM (inactive) | > 100 µM (inactive) | – | > 100 µM (inactive) | > 100 µM (inactive) | > 100 µM (inactive) | > 100 µM (inactive) |
| CCNC(=S)N/N=C(\C)c1cccc(C)n1 | 13.5 µM (inactive) | 5.2 µM (inactive) | 30.3 µM (inactive) | 3.09 µM (inactive) | > 100 µM (inactive) | 22.3 µM (inactive) | 11 µM (inactive) | 1.78 µM (inactive) | 18.7 µM (inactive) | 11 µM (inactive) | 9.31 µM (inactive) | 28.2 µM (inactive) | 3.71 µM (inactive) | 0.351 µM (active) | 42.8 µM (inactive) | – | 18.6 µM (inactive) | 0.631 µM (active) | > 100 µM (inactive) | 3.13 µM (inactive) |
| O=C(O)CCNC(=O)c1cc(N(CCBr)CCBr)c([N+](=O)[O-])cc1[N+](=O)[O-] | > 100 µM (inactive) | > 100 µM (inactive) | > 100 µM (inactive) | > 100 µM (inactive) | > 100 µM (inactive) | > 100 µM (inactive) | > 100 µM (inactive) | > 100 µM (inactive) | – | > 100 µM (inactive) | > 100 µM (inactive) | > 100 µM (inactive) | > 100 µM (inactive) | > 100 µM (inactive) | > 100 µM (inactive) | > 100 µM (inactive) | > 100 µM (inactive) | > 100 µM (inactive) | > 100 µM (inactive) | > 100 µM (inactive) |
